Reference: patent US10537561B2 (Novartis AG, priority 2011, dated 2020)
Each block holds one compound with its values, some of them ahead of it.

Experiments:
PDGFR-β = PDGFR-β (Homo sapiens, UniProt P09619); assay: PDGFR-β inhibition; type: biochemical; details: read-out: PDGFR-β IC-50
CSF-1R = CSF-1R (Homo sapiens, UniProt P07333); assay: CSF-1R inhibition, biochemical assay
[1] = system: neurospheres derived from mouse RCAS-PDGF-B-HA/Nestin-Tv-a; Ink4a/Arf−/− GBMs; assay: Secondary neurosphere formation assay; type: cell-based
Description: (§1) For neurosphere formation the cell pellet was resuspended in neurosphere media consisting of mouse NSC Basal Media, NSC proliferation supplements, 10 ng/ml EGF, 20 ng/ml basic-FGF and 1 mg/ml Heparin (Stem Cell Technologies). Fresh media was added every 72 hours for 2 weeks. Primary neurospheres were collected, mechanically disaggregated to a single cell suspension and propagated by serial passaging. To generate glioma cell lines, secondary neurospheres were dissociated to single cell suspensions and cultivated in DMEM+10% FBS as a monolayer. Multiple glioma cell lines were derived from independent mice, denoted GBM1-4 herein. Glioma cells were infected with a pBabe-H2B-mCherry construct as described previously (O. Florey, et al., Nat Cell Biol 13, 1335 (2011)).
Media was changed every 48 hours. Secondary neurosphere formation was assayed by counting the number of neurospheres obtained after 2 weeks.

[2] = system: mouse GBM cell cultures (GBM1-4); assay: Mouse glioma cell line proliferation (MTT); type: cell-based
Description: as §1
(§2) Cell growth rate was determined using the MTT cell proliferation kit (Roche). […] Media was changed every 48 hours. BMDM and CRL-2467 cells were supplemented with 10 ng/ml and 30 ng/ml recombinant mouse CSF-1 respectively unless otherwise indicated. 10 μl of MTT labeling reagent was added to each well and then incubated for 4 hours at 37° C., followed by the addition of 100 μl MTT solubilization reagent overnight. The mixture was gently resuspended and absorbance was measured at 595 nm and 750 nm on a spectraMax 340pc plate reader (Molecular Devices).

[3] = system: glioma in RCAS-PDGF-B-HA/Nestin-Tv-a; Ink4a/Arf−/− mice; assay: Histologic analyses of tumors from short-term trial; type: in vivo, mouse; details: for Apoptosis (% CC3+) / Macrophages (% CD68+) / Total DAPI+ Cells / Tumor Cells (% Olig2+) / Phagocytic Capacity / Vasculature (CD31 MVD): vs vehicle
Description: The analyses were performed on tissues from the short-term trial (see Example 5), so that tumors from the different treatment groups could be compared at the same defined endpoint. Tumor cell density was examined using the oligodendrocyte marker Olig2, which has previously been used to identify glioma cells. […] (FIG. 6A).
To isolate tissues for snap freezing in liquid nitrogen, mice were euthanized by carbon dioxide asphyxiation or fully anesthetized with avertin (2,2,2-tribromoethanol, Sigma) and cervically dislocated prior to tissue harvest. For flow cytometry, mice were fully anesthetized with avertin and transcardially perfused with 20 ml of PBS. The brain was then isolated and the tumor macrodissected from the surrounding normal tissue. For proliferation analysis, mice were injected intraperitoneally with […] of bromodeoxyuridine (BrdU; Sigma) 2 hours prior to sacrifice. To isolate tissues for frozen histology, mice were fully anesthetized with avertin, transcardially perfused with 10 ml of PBS, followed by 10 ml of 4% paraformaldehyde in PBS (PFA). The brain was postfixed in PFA overnight at 4° C. while other tissues were cryopreserved in 30% sucrose at 4° C. After post-fixation, the brain was then transferred to 30% sucrose and incubated at 4° C. until the brain was fully equilibrated and sank to the bottom of the tube (typically 2 to 3 days). All tissues were then embedded in OCT (Tissue-Tek) and 10 μm cryostat tissue sections were used for all subsequent analysis.
For immunofluorescence, 10 μm thick frozen sections were thawed and dried at room temperature and then washed in PBS. For the standard staining protocol, tissue sections were blocked in 0.5% PNB in PBS for at least 1 hour at room temperature or up to overnight at 4° C., followed by incubation in primary antibody in 0.25% PNB for 2 hours at room temperature or overnight at 4° C. Sections were then washed in PBS and incubated with the appropriate fluorophore-conjugated secondary antibody (Molecular Probes) at a dilution 1:500 in 0.25% PNB for 1 hour at room temperature. After washing in PBS, tissue sections were counterstained with DAPI (5 mg/ml stock diluted 1:5000 in PBS) for 5 minutes prior to mounting with ProLong Gold Antifade mounting media (Invitrogen).
For angiogenesis and proliferation analysis, tissue sections were first subjected to citrate buffer based antigen retrieval by submerging in antigen unmasking solution (0.94% v/v in distilled water; Vector Laboratories) and microwaving for 10 minutes on half power, followed by cooling to room temperature for at least 30 minutes. For angiogenesis analysis, tissues were then washed in PBS and blocked with mouse Ig blocking reagent (Vector Laboratories) according to the manufacturer's instructions for 1 hour at room temperature. For proliferation analysis, after antigen retrieval, tissue sections were incubated with 2M HCl for 15 minutes at room temperature to denature DNA and then in neutralizing 0.1M sodium borate buffer (pH 8.5) for 5 minutes. After PBS washes, the rest of the staining was performed according to the standard protocol.
For staining for phagocytosis analysis, 10 μm thick frozen sections were thawed and dried at room temperature and then washed in PBS. Tissue sections were blocked in 0.5% PNB in PBS for at least 1 hour at room temperature, followed by incubation in rabbit anti-cleaved caspase-3 primary antibody diluted 1:500 in 0.5% PNB overnight at 4° C. The next day, slides were washed 6 times for 5 minutes in PBS prior to incubation with goat-anti-rabbit Alexa568 secondary antibody (1:500 in 0.5% PNB) for 1 hour at room temperature. Tissue sections were then washed 6 times for 5 minutes in PBS and blocked overnight at 4° C. in a new buffer of 5% donkey serum, 3% bovine serum albumin, and 0.5% PNB in PBS. […]

[4] = system: glioma in RCAS-PDGF-B-HA/Nestin-Tv-a; Ink4a/Arf−/− mice; assay: Long-term survival trial in glioma model; type: in vivo, mouse
[5] = system: glioma in RCAS-PDGF-B-HA/Nestin-Tv-a; Ink4a/Arf−/− mice; assay: Short-term trial, tumor volume by MRI; type: in vivo, mouse
Description: Tumor volume in the RCAS-PDGF-B-HA/Nestin-Tv-a; Ink4a/Arf^−/− mice was determined by MRI, and mice were added to the trial when this was at least 4.5 mm^3 or greater. […] MRI scans were performed on the day before treatment was initiated, at the mid-point of the treatment, and at the day before the end of the trial period.
The vehicle control, 20% captisol, was processed in the same manner.
To determine tumor volume, regions of interest (ROI) were circumscribed on T2 weighted images and their corresponding area in mm^2 was multiplied by the slice height of 0.7 mm. The total tumor volume is the sum of the ROI volume in each slice, and the volume for the first and last slice in which the tumor appear is halved to approximate the volume of a trapezoid. When tumor volume was in the range of 4.5-40 mm^3, animals were randomly assigned to treatment groups. […] A size-matched vehicle treated cohort was not included for this cohort having the larger starting tumor burden because these mice would not have been able to survive to the trial endpoint.

[6] = system: CSF-dependent cell proliferation; assay: CSF-dependent cell proliferation; type: cell-based; details: read-out: CSF-dependent cell proliferation IC-50
[7] = system: several hundred kinases in the Ambit kinase array; assay: Ambit kinase array screen; type: binding; details: lower than 50% only against CSF-1R, PDGFRα and PDGFRβ
[8] = target: >200 miscellaneous kinases; assay: Kinase selectivity panel; type: biochemical; details: read-out: IC50 values for most of >200 miscellaneous kinases
[9] = system: Bone marrow-derived macrophages (BMDMs); assay: BMDM proliferation/survival (MTT); type: cell-based, mouse
Description: as §2

Chain of CSF-1R (P07333 20-972, species assumed): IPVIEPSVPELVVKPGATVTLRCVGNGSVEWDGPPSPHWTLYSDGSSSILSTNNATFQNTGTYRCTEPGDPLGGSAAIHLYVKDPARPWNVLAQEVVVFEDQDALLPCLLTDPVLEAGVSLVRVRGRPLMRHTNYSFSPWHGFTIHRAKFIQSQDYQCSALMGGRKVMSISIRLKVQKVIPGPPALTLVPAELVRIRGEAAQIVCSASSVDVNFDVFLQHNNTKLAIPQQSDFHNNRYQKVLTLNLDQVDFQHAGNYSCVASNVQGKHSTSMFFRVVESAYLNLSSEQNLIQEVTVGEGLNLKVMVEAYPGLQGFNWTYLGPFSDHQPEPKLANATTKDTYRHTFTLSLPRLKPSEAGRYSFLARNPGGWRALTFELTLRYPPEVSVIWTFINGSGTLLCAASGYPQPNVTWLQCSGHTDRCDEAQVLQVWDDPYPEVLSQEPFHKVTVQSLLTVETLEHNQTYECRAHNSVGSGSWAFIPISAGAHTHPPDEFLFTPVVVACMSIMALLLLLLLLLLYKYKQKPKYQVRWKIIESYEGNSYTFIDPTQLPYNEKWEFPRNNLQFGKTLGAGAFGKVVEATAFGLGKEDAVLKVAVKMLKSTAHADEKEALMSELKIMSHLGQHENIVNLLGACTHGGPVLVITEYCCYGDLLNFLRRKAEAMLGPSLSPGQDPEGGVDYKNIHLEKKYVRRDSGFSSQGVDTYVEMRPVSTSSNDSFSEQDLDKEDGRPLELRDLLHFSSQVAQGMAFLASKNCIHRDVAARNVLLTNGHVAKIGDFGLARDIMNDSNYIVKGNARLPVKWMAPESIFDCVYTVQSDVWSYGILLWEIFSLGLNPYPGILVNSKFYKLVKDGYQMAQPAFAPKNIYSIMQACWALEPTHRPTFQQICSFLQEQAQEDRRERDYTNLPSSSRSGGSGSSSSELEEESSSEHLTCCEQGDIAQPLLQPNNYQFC
Chain of PDGFR-β (P09619 33-1106, species assumed): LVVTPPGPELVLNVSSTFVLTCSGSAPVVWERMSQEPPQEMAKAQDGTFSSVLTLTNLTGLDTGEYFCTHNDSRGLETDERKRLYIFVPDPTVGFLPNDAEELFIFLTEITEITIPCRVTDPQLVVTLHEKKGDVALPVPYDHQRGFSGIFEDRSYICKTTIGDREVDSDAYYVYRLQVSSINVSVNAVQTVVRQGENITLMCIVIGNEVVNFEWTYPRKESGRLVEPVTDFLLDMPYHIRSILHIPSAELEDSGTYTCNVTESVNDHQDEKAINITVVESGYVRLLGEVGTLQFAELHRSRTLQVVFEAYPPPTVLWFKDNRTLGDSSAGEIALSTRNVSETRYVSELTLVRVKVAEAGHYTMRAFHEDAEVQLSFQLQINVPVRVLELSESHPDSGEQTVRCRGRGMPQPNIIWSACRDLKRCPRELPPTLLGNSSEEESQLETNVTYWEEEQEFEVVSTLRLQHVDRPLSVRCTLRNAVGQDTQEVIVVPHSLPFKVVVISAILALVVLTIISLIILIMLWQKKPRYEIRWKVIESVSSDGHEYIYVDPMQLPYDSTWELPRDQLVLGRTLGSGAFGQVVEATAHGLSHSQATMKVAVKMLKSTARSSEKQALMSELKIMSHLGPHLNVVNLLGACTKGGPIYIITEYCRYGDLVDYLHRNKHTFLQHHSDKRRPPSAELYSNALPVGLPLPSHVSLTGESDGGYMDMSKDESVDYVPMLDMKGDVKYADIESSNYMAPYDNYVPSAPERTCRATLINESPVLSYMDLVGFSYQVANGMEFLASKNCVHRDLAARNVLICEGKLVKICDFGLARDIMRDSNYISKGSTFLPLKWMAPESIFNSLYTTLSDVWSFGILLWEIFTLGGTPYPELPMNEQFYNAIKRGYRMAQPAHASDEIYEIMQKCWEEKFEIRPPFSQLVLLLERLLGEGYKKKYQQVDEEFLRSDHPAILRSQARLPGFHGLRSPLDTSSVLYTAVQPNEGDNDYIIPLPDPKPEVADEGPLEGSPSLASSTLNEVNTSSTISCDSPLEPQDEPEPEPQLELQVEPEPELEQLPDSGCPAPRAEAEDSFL

IC50 (PDGFR-β): 7700 nM
IC50 (CSF-1R): 8 nM
Structure (SMILES): CCCNC(=O)c1cc(Oc2ccc3nc(N[C@@H]4CCCC[C@H]4O)sc3c2)ccn1

IC50 (PDGFR-β): 1700 nM
IC50 (CSF-1R): 3 nM
Structure (SMILES): CCn1cc(-c2cc(Oc3ccc4nc(N[C@@H]5CCCC[C@H]5O)sc4c3)ccn2)cn1

Structure (SMILES): CNC(=O)c1cc(Oc2ccc3nc(N[C@@H]4CCCC[C@H]4O)sc3c2)ccn1 [BLZ945]
formation of secondary neurospheres [1]: not altered
total number and size of neurospheres ([1]; 670 nM): unaffected
effects on tumor cell lines established from secondary mouse GBM neurospheres [2]: no differences
Apoptosis (% CC3+) ([3]; BLZ945, Day 3): +17-fold
Macrophages (% CD68+) ([3]; BLZ945, Day 3): +3-fold
Total DAPI+ Cells ([3]; BLZ945, Day 3): −72%
Tumor Cells (% Olig2+) ([3]; BLZ945, Day 3): −27%
Apoptosis (% CC3+) ([3]; BLZ945, Day 7): +6-fold
Macrophages (% CD68+) ([3]; BLZ945, Day 7): +2-fold
Phagocytic Capacity ([3]; BLZ945, Day 7): +5.0-fold
Total DAPI+ Cells ([3]; BLZ945, Day 7): −80%
Tumor Cells (% Olig2+) ([3]; BLZ945, Day 7): −77%
Vasculature (CD31 MVD) ([3]; BLZ945, Day 7): −17%
Apoptosis (% CC3+) ([3]; BLZ945 Large, Day 3): +9-fold
Macrophages (% CD68+) ([3]; BLZ945 Large, Day 3): +2-fold
Phagocytic Capacity ([3]; BLZ945 Large, Day 3): +7.1-fold
Total DAPI+ Cells ([3]; BLZ945 Large, Day 3): −40%
Tumor Cells (% Olig2+) ([3]; BLZ945 Large, Day 3): −14%
Apoptosis (% CC3+) ([3]; BLZ945 Large, Day 7): +2-fold
Macrophages (% CD68+) ([3]; BLZ945 Large, Day 7): +4-fold
Phagocytic Capacity ([3]; BLZ945 Large, Day 7): +6.0-fold
Total DAPI+ Cells ([3]; BLZ945 Large, Day 7): −65%
Tumor Cells (% Olig2+) ([3]; BLZ945 Large, Day 7): −73%
Vasculature (CD31 MVD) ([3]; BLZ945 Large, Day 7): −67%
level of apoptosis (CC3+) ([3]; earlier time point in particular): increase in apoptosis
Olig2 (tumor cell density) ([3]; vs vehicle controls): significantly reduced
treated cohort still alive (symptom-free survival) at trial endpoint ([4]; 200 mg/kg oral gavage daily, 26 weeks post-injection): 64.4%
mice with grade II glioma among 4 treated mice sacrificed for histology ([4]; 12 weeks, of 4 mice): one
tumor free mice among 4 treated mice sacrificed for histology ([4]; 12 weeks, of 4 mice): 3
treated animals either Grade II or tumor free ([4]; long-term trial): 80%
treated animals with Grade III tumor ([4]; long-term trial): 20%
tumor malignancy vs vehicle ([4]; long-term trial): significantly less malignant tumors
mice with no detectable lesions ([4]; mice alive at 26-week trial endpoint): 56%
treated animals with reduced tumor size ([5]; 6 days of dosing): 7 of 11
treated animals with tumor volume increases over 50% ([5]; 6 days, of 11 animals): two
tumor size by MRI ([5]; 7 day trial): no increase in tumor size
Tumor Volume (Day −1 vs Day 6) ([5]; BLZ945, Day 7, tumors 4.5-40 mm^3): +0.68%
treated mice with reduction of at least 30% in tumor size ([5]; large tumor cohort 48.7 to 132 mm^3, 6 days): 6 of 18
tumor volume change ([5]; large tumor cohort, 6 days): decreased in nearly all test animals
IC50 [6]: ~67 nM
activity in Ambit kinase array [7]: lower than 50 % of control
IC50 [8]: > 10000 nM
rate of population doubling of BMDM cells ([9]; 67 nM): same effect on this rate as absence of CSF-1 stimulation
macrophage survival ([9]; 67 nM to 6700 nM, wild-type BMDMs): dramatically blocked macrophage survival

IC50 (PDGFR-β): 13900 nM
IC50 (CSF-1R): 6 nM
Structure (SMILES): CCNC(=O)c1cc(Oc2ccc3nc(N[C@@H]4CCCC[C@H]4O)sc3c2)ccn1 [Ig-B]

IC50 (PDGFR-β): 740 nM
IC50 (CSF-1R): 0.9 nM
Structure (SMILES): Cn1cc(-c2cc(Oc3ccc4nc(N[C@@H]5CCCC[C@H]5O)sc4c3)ccn2)cn1 [Ih-A]

IC50 (PDGFR-β): 1500 nM
IC50 (CSF-1R): 7 nM
Structure (SMILES): CCCn1cc(-c2cc(Oc3ccc4nc(N[C@@H]5CCCC[C@H]5O)sc4c3)ccn2)cn1 [Ih-C]

IC50 (PDGFR-β): 20 nM
IC50 (CSF-1R): 1 nM
Structure (SMILES): Cn1cc(-c2cc(Oc3ccc4nc(N[C@H]5CCCC[C@@H]5O)sc4c3)ccn2)cn1 [Ih-D]
